Assay results reported in patent US8822413B2, “Bifunctional hormone having alpha-MSH activity and natriuretic peptide activity and uses thereof” (Theratechnologies Inc., priority 2007, dated 2014).
pEC50: −log10 of the molar value. Bridge positions count the residues as written; N and C are the ends. Square brackets hold non-standard residues; d marks the D form. Peptide text beside a SMILES is read from it. Nle = CCCC[C@H](N)C(=O)O

Target: T1, ANP receptor (Sus scrofa, UniProt F1SFW3)
T1 construct: ANP receptor-expressing LLC-PK1 cells; endogenous in cells; host or cells: LLC-PK1 cells
T1 sequence (F1SFW3 29-1057): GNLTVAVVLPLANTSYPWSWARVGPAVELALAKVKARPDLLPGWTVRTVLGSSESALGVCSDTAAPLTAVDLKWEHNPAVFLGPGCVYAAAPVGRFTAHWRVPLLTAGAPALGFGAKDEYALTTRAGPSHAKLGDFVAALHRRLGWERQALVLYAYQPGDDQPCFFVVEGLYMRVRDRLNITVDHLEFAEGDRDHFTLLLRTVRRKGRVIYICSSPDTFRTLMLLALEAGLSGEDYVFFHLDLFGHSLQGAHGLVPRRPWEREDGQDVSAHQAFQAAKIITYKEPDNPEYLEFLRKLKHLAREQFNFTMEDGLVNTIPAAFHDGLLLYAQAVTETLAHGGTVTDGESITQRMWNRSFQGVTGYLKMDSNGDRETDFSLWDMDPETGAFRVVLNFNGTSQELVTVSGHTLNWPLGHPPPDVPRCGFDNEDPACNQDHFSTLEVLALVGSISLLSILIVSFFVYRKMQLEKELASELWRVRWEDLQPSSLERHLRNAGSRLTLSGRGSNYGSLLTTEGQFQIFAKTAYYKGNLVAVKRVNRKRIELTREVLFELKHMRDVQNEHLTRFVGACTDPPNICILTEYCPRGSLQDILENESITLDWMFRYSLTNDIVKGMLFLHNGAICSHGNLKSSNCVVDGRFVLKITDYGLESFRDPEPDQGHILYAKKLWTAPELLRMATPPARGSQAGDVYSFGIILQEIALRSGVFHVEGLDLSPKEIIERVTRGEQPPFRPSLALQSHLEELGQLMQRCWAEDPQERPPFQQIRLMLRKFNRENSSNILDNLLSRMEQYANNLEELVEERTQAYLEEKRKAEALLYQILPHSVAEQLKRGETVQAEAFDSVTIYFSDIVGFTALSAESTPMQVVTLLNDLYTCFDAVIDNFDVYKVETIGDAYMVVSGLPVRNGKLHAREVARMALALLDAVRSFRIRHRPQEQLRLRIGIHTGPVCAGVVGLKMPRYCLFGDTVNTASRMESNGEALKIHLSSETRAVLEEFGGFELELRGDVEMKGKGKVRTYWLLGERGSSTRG
Test: cGMP production in ANP receptor-expressing LLC-PK1 cells
Format: cell-based
Conditions: 30 min stimulation, 10^-6M through 10^-12M, NR = No response detected
Description: The bifunctional hormone was tested on ANP receptor-expressing LLC-PK1 cells and on MCR1 receptor-expressing B16-F1 cells. Both cell types were cultured 24 hours before the stimulation, in 96-well plates, at a concentration of 1.0×10^5 cells/ml. Before stimulation, cells were starved 2 hours in DPBS only and incubated 10 min in assay buffer (DPBS containing 20 mM HEPES, 0.1% BSA and 500 μM IBMX). The dose response curve of the bifunctional hormone was done for 30 minutes with concentrations of 10^−6M through 10^−12M. Supernatant was collected and cAMP (B16-F1) or cGMP (LLC-PK1) was measured with a radiolabeled kit from GE Healthcare Company.

| SMILES | pEC50 |
| --- | --- |
| CC[C@H](C)[C@@H]1NC(=O)[C@H](CCCNC(=N)N)NC(=O)[C@H](CC(=O)O)NC(=O)[C@H](CCSC)NC(=O)[C@H](CCCNC(=N)N)NC(=O)CNC(=O)CNC(=O)[C@H](Cc2ccccc2)NC(=O)[C@H](Cc2c[nH]cn2)NC(=O)[C@@H](NC(=O)[C@H](CCSC)NC(=O)[C@@H]2CCCN2C(=O)[C@H](CCCCN)NC(=O)CNC(=O)[C@H](Cc2c[nH]c3ccccc23)NC(=O)[C@H](CCCNC(=N)N)NC(=O)[C@@H](Cc2ccccc2)NC(=O)[C@H](Cc2c[nH]cn2)NC(C)=O)CSSC[C@@H](C(=O)N[C@@H](Cc2ccc(O)cc2)C(=O)N[C@@H](CCCNC(=N)N)C(N)=O)NC(=O)[C@H](CO)NC1=O [SEQ ID NO: 31, Ac-H-f-R-W-G-K-P-M-[C-H-F-G-G-R-M-D-R-I-S-C]-Y-R-NH2] (Ac-H[dF]RWGKPMCHFGGRMDRISCYR-NH2; disulfide 9-20) | 7.13 |
| CCCC[C@@H]1NC(=O)[C@H](CCCNC(=N)N)NC(=O)CNC(=O)CNC(=O)[C@H](Cc2ccccc2)NC(=O)[C@H](Cc2c[nH]cn2)NC(=O)[C@@H](NC(=O)[C@H](CCCC)NC(=O)[C@@H]2CCCN2C(=O)[C@H](CCCCN)NC(=O)CNC(=O)[C@H](Cc2c[nH]c3ccccc23)NC(=O)[C@H](CCCNC(=N)N)NC(=O)[C@@H](Cc2ccccc2)NC(=O)[C@H](Cc2c[nH]cn2)NC(C)=O)CSSC[C@@H](C(=O)N[C@@H](Cc2ccc(O)cc2)C(=O)N[C@@H](CCCNC(=N)N)C(N)=O)NC(=O)[C@H](CO)NC(=O)[C@H]([C@@H](C)CC)NC(=O)[C@H](CCCNC(=N)N)NC(=O)[C@H](CC(=O)O)NC1=O [SEQ ID NO: 34, Ac-H-f-R-W-G-K-P-Nle-[C-H-F-G-G-R-Nle-D-R-I-S-C]-Y-R-NH2] (Ac-H[dF]RWGKP[Nle]CHFGGR[Nle]DRISCYR-NH2; disulfide 9-20) | 6.88 |
| CC[C@H](C)[C@@H]1NC(=O)[C@H](CCCNC(=N)N)NC(=O)[C@H](CC(=O)O)NC(=O)[C@H](CCSC)NC(=O)[C@H](CCCNC(=N)N)NC(=O)CNC(=O)CNC(=O)[C@H](Cc2ccccc2)NC(=O)[C@@H](NC(=O)[C@H](CO)NC(=O)[C@H](CO)NC(=O)[C@H](CCCNC(=N)N)NC(=O)[C@H](CCCNC(=N)N)NC(=O)CNC(=O)[C@H](Cc2c[nH]c3ccccc23)NC(=O)[C@H](CCCNC(=N)N)NC(=O)[C@@H](Cc2ccccc2)NC(=O)[C@H](Cc2c[nH]cn2)NC(C)=O)CSSC[C@@H](C(=O)N[C@@H](CC(N)=O)C(=O)N[C@@H](CO)C(=O)N[C@@H](Cc2ccccc2)C(=O)N[C@@H](CCCNC(=N)N)C(=O)N[C@@H](Cc2ccc(O)cc2)C(N)=O)NC(=O)CNC(=O)[C@H](CC(C)C)NC(=O)CNC(=O)[C@H](CO)NC(=O)[C@H](CCC(N)=O)NC(=O)[C@H](C)NC(=O)CNC1=O [SEQ ID NO: 39, Ac-H-f-R-W-G-R-R-S-S-[C-F-G-G-R-M-D-R-I-G-A-Q-S-G-L-G-C]-N-S-F-R-Y-NH2] (Ac-H[dF]RWGRRSSCFGGRMDRIGAQSGLGCNSFRY-NH2; disulfide 10-26) | 7.28 |
| CCCC[C@@H]1NC(=O)[C@H](CCCNC(=N)N)NC(=O)CNC(=O)CNC(=O)[C@H](Cc2ccccc2)NC(=O)[C@@H](NC(=O)[C@H](CCCC)NC(=O)[C@@H]2CCCN2C(=O)[C@H](CCCCN)NC(=O)CNC(=O)[C@H](Cc2c[nH]c3ccccc23)NC(=O)[C@H](CCCNC(=N)N)NC(=O)[C@@H](Cc2ccccc2)NC(=O)[C@H](Cc2c[nH]cn2)NC(C)=O)CSSC[C@@H](C(=O)N[C@@H](CC(N)=O)C(=O)N[C@@H](CO)C(=O)N[C@@H](Cc2ccccc2)C(=O)N[C@@H](CCCNC(=N)N)C(=O)N[C@@H](Cc2ccc(O)cc2)C(N)=O)NC(=O)CNC(=O)[C@H](CC(C)C)NC(=O)CNC(=O)[C@H](CO)NC(=O)[C@H](CCC(N)=O)NC(=O)[C@H](C)NC(=O)CNC(=O)[C@H]([C@@H](C)CC)NC(=O)[C@H](CCCNC(=N)N)NC(=O)[C@H](CC(=O)O)NC1=O [SEQ ID NO: 35, Ac-H-f-R-W-G-K-P-Nle-[C-F-G-G-R-Nle-D-R-I-G-A-Q-S-G-L-G-C]-N-S-F-R-Y-NH2] (Ac-H[dF]RWGKP[Nle]CFGGR[Nle]DRIGAQSGLGCNSFRY-NH2; disulfide 9-25) | 6.66 |
| CC[C@H](C)[C@@H]1NC(=O)[C@H](CCCNC(=N)N)NC(=O)[C@H](CC(=O)O)NC(=O)[C@H](CCSC)NC(=O)[C@H](CCCNC(=N)N)NC(=O)CNC(=O)CNC(=O)[C@H](Cc2ccccc2)NC(=O)[C@@H](NC(=O)[C@H](CO)NC(=O)[C@H](CO)NC(=O)[C@H](CCCNC(=N)N)NC(=O)[C@H](CCCNC(=N)N)NC(=O)CNC(=O)[C@H](Cc2c[nH]c3ccccc23)NC(=O)[C@H](CCCNC(=N)N)NC(=O)[C@H](Cc2ccccc2)NC(=O)[C@H](Cc2c[nH]cn2)NC(=O)[C@H](CCC(=O)O)NC(=O)[C@@H](N)CCSC)CSSC[C@@H](C(=O)N[C@@H](CC(N)=O)C(=O)N[C@@H](CO)C(=O)N[C@@H](Cc2ccccc2)C(=O)N[C@@H](CCCNC(=N)N)C(=O)N[C@@H](Cc2ccc(O)cc2)C(N)=O)NC(=O)CNC(=O)[C@H](CC(C)C)NC(=O)CNC(=O)[C@H](CO)NC(=O)[C@H](CCC(N)=O)NC(=O)[C@H](C)NC(=O)CNC1=O [SEQ ID NO: 36, M-E-H-F-R-W-G-R-R-S-S-[C-F-G-G-R-M-D-R-I-G-A-Q-S-G-L-G-C]-N-S-F-R-Y-NH2] (H-MEHFRWGRRSSCFGGRMDRIGAQSGLGCNSFRY-NH2; disulfide 12-28) | 7.48 |

Other lines, results leading:

| pEC50 | SMILES |
| --- | --- |
| 8.05 | CC[C@H](C)[C@@H]1NC(=O)[C@H](CCCNC(=N)N)NC(=O)[C@H](CC(=O)O)NC(=O)[C@H](CCSC)NC(=O)[C@H](CCCNC(=N)N)NC(=O)CNC(=O)CNC(=O)[C@H](Cc2ccccc2)NC(=O)[C@@H](NC(=O)[C@H](CO)NC(=O)[C@H](CO)NC(=O)[C@H](CCCNC(=N)N)NC(=O)[C@H](CCCNC(=N)N)NC(=O)CNC(=O)[C@H](Cc2c[nH]c3ccccc23)NC(=O)[C@H](CCCNC(=N)N)NC(=O)[C@H](Cc2ccccc2)NC(=O)[C@H](Cc2c[nH]cn2)NC(=O)[C@H](CCC(=O)O)NC(C)=O)CSSC[C@@H](C(=O)N[C@@H](CC(N)=O)C(=O)N[C@@H](CO)C(=O)N[C@@H](Cc2ccccc2)C(=O)N[C@@H](CCCNC(=N)N)C(=O)N[C@@H](Cc2ccc(O)cc2)C(N)=O)NC(=O)CNC(=O)[C@H](CC(C)C)NC(=O)CNC(=O)[C@H](CO)NC(=O)[C@H](CCC(N)=O)NC(=O)[C@H](C)NC(=O)CNC1=O [SEQ ID NO: 41, Ac-E-H-F-R-W-G-R-R-S-S-[C-F-G-G-R-M-D-R-I-G-A-Q-S-G-L-G-C]-N-S-F-R-Y-NH2] (Ac-EHFRWGRRSSCFGGRMDRIGAQSGLGCNSFRY-NH2; disulfide 11-27) |
| 7.06 | CC[C@H](C)[C@@H]1NC(=O)[C@H](CCCNC(=N)N)NC(=O)[C@H](CC(=O)O)NC(=O)[C@H](CCSC)NC(=O)[C@H](CCCNC(=N)N)NC(=O)CNC(=O)CNC(=O)[C@H](Cc2ccccc2)NC(=O)[C@@H](NC(=O)[C@H](CCSC)NC(=O)[C@@H]2CCCN2C(=O)[C@H](CCCCN)NC(=O)CNC(=O)[C@H](Cc2c[nH]c3ccccc23)NC(=O)[C@H](CCCNC(=N)N)NC(=O)[C@H](Cc2c[nH]cn2)NC(C)=O)CSSC[C@@H](C(=O)N[C@@H](CC(N)=O)C(=O)N[C@@H](CO)C(=O)N[C@@H](Cc2ccccc2)C(=O)N[C@@H](CCCNC(=N)N)C(=O)N[C@@H](Cc2ccc(O)cc2)C(N)=O)NC(=O)CNC(=O)[C@H](CC(C)C)NC(=O)CNC(=O)[C@H](CO)NC(=O)[C@H](CCC(N)=O)NC(=O)[C@H](C)NC(=O)CNC1=O [SEQ ID NO: 43, Ac-H-R-W-G-K-P-M-[C-F-G-G-R-M-D-R-I-G-A-Q-S-G-L-G-C]-N-S-F-R-Y-NH2] (Ac-HRWGKPMCFGGRMDRIGAQSGLGCNSFRY-NH2; disulfide 8-24) |
